Results taken from ChEMBL document CHEMBL3872246, “Synthesis, antioxidant and antichagasic properties of a selected series of hydroxy-3-arylcoumarins” (Bioorg Med Chem, 2017).
The source made the active and inactive calls. No cut-off for these calls is given here.

Legend:
[1] = Oxidation potential of compound at group 1 hydroxyl against Ag/Agcl reference electrode at 1 mM by cyclic voltametry; type: physicochemical; details: 1000 µM
[2] = Antioxidant activity assessed as photolysis-induced hydroxyl radical scavenging activity at 1 mM measured after 2 mins using DMPO spin trap by ESR spectroscopic method relative to control; type: functional
[3] = Cytotoxicity against mouse RAW264.7 cells measured after 4 hrs by MTT assay; type: toxicity
[4] = Oxidation potential of compound at group 2 hydroxyl against Ag/Agcl reference electrode at 1 mM by cyclic voltametry
Trypanosoma cruzi [5] = experiment: Antitrypanosomal activity against Trypanosoma cruzi Dm28c epimastigotes at 10 to 100 uM measured after 24 hrs by MTT assay; type: functional
[6] = Antioxidant activity assessed as AAPH-induced peroxyl radical scavenging activity by measuring ORAC-FL index at 0.5 to 2.5 uM preincubated for 15 mins followed by AAPH addition measured every 1 min for 120 mins by fluorescence assay relative to trolox; type: functional
Trypanosoma cruzi [7] = experiment: Antitrypanosomal activity against Trypanosoma cruzi Dm28c epimastigotes after 24 hrs by MTT assay; type: functional
[8] = Induction of free radical species generation assessed as compound-PBN adduct formation at 1 mM by ESR spectroscopic method; type: physicochemical; details: 1000 µM
[9] = Oxidation potential of compound against Ag/Agcl reference electrode at 1 mM by cyclic voltametry; type: physicochemical; details: 1000 µM
Trypanosoma cruzi [10] = experiment: Induction of free radical species generation in microsomes of Trypanosoma cruzi Dm28c epimastigotes spin adduct formation at 5 mM measured after 10 mins using DMPO spin trap by ESR spectroscopic method; type: functional
[11] = Selectivity index, ratio of IC50 for cytotoxicity against mouse RAW264.7 cells to IC50 for antitrypanosomal activity against epimastigote stage of Trypanosoma cruzi Dm28c; type: toxicity, cell-based; details: read-out: Ratio IC50
[12] = Selectivity index, ratio of IC50 for cytotoxicity against mouse RAW264.7 cells to IC50 for antitrypanosomal activity against trypomastigote stage of Trypanosoma cruzi Dm28c; type: toxicity, cell-based; details: read-out: Ratio IC50
Trypanosoma cruzi [13] = experiment: Antitrypanosomal activity against trypomastigote stage of Trypanosoma cruzi Dm28c infected in African green monkey Vero cells assessed as growth inhibition at 20 to 100 uM incubated for 5 to 7 days post infection measured after 24 hrs by MTT assay; type: functional, cell-based
Trypanosoma cruzi [14] = experiment: Potency index, ratio of nifurtimox IC50 to compound IC50 for Trypanosoma cruzi Dm28c epimastigotes; type: functional
Trypanosoma cruzi [15] = experiment: Potency index, ratio of nifurtimox IC50 to compound IC50 for Trypanosoma cruzi Dm28c trypamastigotes infected in African green monkey Vero cells; type: functional
Trypanosoma cruzi [16] = experiment: Antitrypanosomal activity against trypomastigote stage of Trypanosoma cruzi Dm28c infected in African green monkey Vero cells assessed as growth inhibition incubated for 5 to 7 days post infection measured after 24 hrs by MTT assay; type: functional, cell-based

Structure (SMILES)	Activity [1]	Activity [2]	IC50 at 4 h [3]	Activity [4]	Activity (Trypanosoma cruzi [5])	Activity [6]	IC50 (Trypanosoma cruzi [7])	Activity [8]	Activity [9]	Activity (Trypanosoma cruzi [10])	selectivity ratio [11]	selectivity ratio [12]	Activity (Trypanosoma cruzi [13])	Ratio IC50 (Trypanosoma cruzi [14])	Ratio IC50 (Trypanosoma cruzi [15])	IC50 (Trypanosoma cruzi [16])
O=c1oc2ccc(O)cc2cc1-c1cccc(O)c1	0.8 V	100%	> 100 µM	1.17 V	Active	5.47	> 100 µM	Active	–	–	–	–	–	–	–	–
O=c1oc2c(O)cccc2cc1-c1cccc(O)c1	–	–	> 100 µM	–	Active	3.12	> 100 µM	–	0.74 V	–	–	–	–	–	–	–
O=c1oc2cc(O)cc(O)c2cc1-c1ccccc1	–	100%	> 100 µM	–	Active	1.81	6.15 µM	Active	1.16 V	Active	> 16.3	–	–	–	–	–
O=c1oc2c(O)c(O)ccc2cc1-c1ccc(O)c(O)c1	0.64 V	24.3%	97.5 µM	0.79 V	Active	5.38	47 µM	–	–	–	2.07	–	–	–	–	–
O=c1oc2c(O)c(O)ccc2cc1-c1cccc(O)c1	–	26.1%	398 µM	–	Active	2.95	28.6 µM	–	0.81 V	–	13.9	–	–	–	–	–
CC1CS(=O)(=O)CCN1/N=C/c1ccc([N+](=O)[O-])o1 (configuration not stated) [NIFURTIMOX]	–	–	263 µM	–	–	–	17.4 µM	–	–	–	15.1	26.3	–	–	–	–
O=c1oc2ccc(O)cc2cc1-c1ccccc1O	–	–	> 100 µM	–	Active	5.3	> 100 µM	Active	0.79 V	–	–	–	–	–	–	–
O=c1oc2c(O)cccc2cc1-c1ccc(O)c(O)c1	–	–	115 µM	–	Active	4.59	84.3 µM	–	0.81 V	–	1.37	–	–	–	–	–
O=c1oc2cc(O)cc(O)c2cc1-c1cccc(O)c1	–	–	> 100 µM	–	Active	1.95	> 100 µM	Active	–	–	–	–	–	–	–	–
O=c1oc2c(O)c(O)ccc2cc1-c1ccccc1	–	–	26.1 µM	–	Active	1.11	8.9 µM	–	0.81 V	Active	2.93	–	–	–	–	–
O=c1oc2c(O)c(O)ccc2cc1-c1ccccc1O	–	–	68.9 µM	–	Active	2.23	1.31 µM	–	0.78 V	Active	52.6	1.73	Active	10 - 13	<=13	39.7 µM
